# From patent publication US9102636B2, “Analgesic compounds, compositions, and uses thereof” (Galleon Pharmaceuticals, Inc., priority 2010, dated 2015)
# Values joined by “and” are separate entries in the source; they are usually repeats but may differ in a detail not shown here. Identical values can stand only once. Counter-ions that a name gives are not always drawn.
# Tests used:
# [1] = test system: Carrageenan-induced thermal hyperalgesia; assay: Carrageenan-induced thermal hyperalgesia (Hargreaves); type: in vivo, rat; details: indomethacin 30 mg/kg p.o. prior to carrageenan; for Paw withdrawal latency: cut-off 40 s, individual animals
# Method: (§1) The effect of Compound 2 in the rat carrageenan model of acute inflammatory pain was evaluated. The intraplantar carrageenan model of acute inflammatory pain in the rat results in behaviors similar to that observed in patients and has been widely used to assess novel pharmacological treatments (Whiteside et al., 2005, J. Pharmacol. Exp. Ther. 314:1234-1240). The objective of this study was to evaluate the ability of Compound 2 to reverse or prevent development of thermal hyperalgesia and edema in the rat carrageenan model of acute inflammatory pain. The positive control was indomethacin (Sigma, St. Louis), and the negative control was vehicle (0.5% methyl cellulose). […] The Hargreaves apparatus was obtained from Ugo Basile, Italy, and the lamba-carrageenan was obtained from Sigma, St. Louis. For this assay, paw withdrawal latency to a thermal stimulus was assessed using a radiant heat source (Ugo Basile, Italy) aimed at the plantar surface of the left hind paw (Hargreaves test). […] Paw volume was measured by displacement of water and assuming a tissue density equal to that of water. Baseline latencies were taken prior to carrageenan administration and re-assessed 4 h later. Compound 2 or vehicle was administered (10 and 30 mg/kg, p.o.) 3 hrs after carrageenan (curative) and behavior assessed 1 hr later. […] Indomethacin (positive control, 30 mg/kg p.o.) was administered prior to carrageenan and behavior assessed 4 hrs post-carrageenan. […] After induction of anesthesia, the injection site was prepared in a sterile manner and 50 μl of a 2% Jamba-carrageenan was injected. After injection, animals were weighed and allowed to recover before being returned to their home cages. Statistical significance was determined on untransformed data using a two-way analysis of variance (Graphpad Prism, NC). Significant main effects were analyzed further by subsequent Bonferronni post-hoc test. The level of significance was set at p<0.05. Data are shown as mean±S.E.M. (with an asterisk to denote significance as compared to vehicle treated controls).
# [2] = test system: Carrageenan-induced edema; assay: Carrageenan-induced edema (paw volume); type: in vivo, rat; details: indomethacin 30 mg/kg p.o. prior to carrageenan; for Paw volume: individual animals
# Method: as §1, with “later.” for “later. Compound 2 or vehicle was administered (10 and 30 mg/kg, p.o.) 3 hrs after carrageenan (curative) and behavior assessed 1 hr later.”
compound,measurement,setting,value
"COC(=O)c1ccc(NC2=N[C@H](C(=O)O)CS2)c(O)c1 (as salt: HCl) [Compound 12, (R)-2-(2-Hydroxy-4-methoxycarbonylphenylamino)-thiazoline-4-carboxylic acid]",melting point,,118 to 120 °C
COc1ccc2c(c1)c(CC(=O)O)c(C)n2C(=O)c1ccc(Cl)cc1 [Indo],Paw withdrawal latency,[1]; 4 hrs post-carrageenan (second line),17 s and 35 s and 26 s and 28 s and 40 s (2×)
same,Paw withdrawal latency,[1]; baseline prior to carrageenan (first line),20 s and 40 s and 17 s and 32 s and 23 s and 24 s
same,Paw volume,[2]; 4 hr post-drug,2.5 mL and 2.4 mL and 2.3 mL (2×) and 2.2 mL and 1.8 mL
same,Paw volume,[2]; Pre-Cg,1.7 mL (2×) and 1.5 mL (2×) and 1.8 mL and 1.4 mL
"O=C(O)[C@@H]1CSC(Nc2ccc(F)cc2O)=N1 (as salt: HCl) [Compound 6, (R)-2-(4-Fluoro-2-hydroxyphenylamino)-thiazoline-4-carboxylic acid]",melting point,,109 to 111 °C
"COc1ccc2c(c1)c(CC(=O)O)c(C)n2C(=O)c1ccc(Cl)cc1 [indomethacin, reference compound]","carrageenan-induced thermal hyperalgesia, positive control preemptive","[1]; rat, 4 hrs post-carrageenan",statistically significant prevention
same,"carrageenan-induced edema, positive control preemptive","[2]; rat, 4 hrs post-carrageenan",statistically significant prevention
"Cc1c(Cl)cc(NC2=N[C@H](C(=O)O)CS2)c(O)c1Cl (as salt: HCl) [Compound 8, (R)-2-(3,5-Dichloro-2-hydroxy-4-methylphenylamino)-thiazoline-4-carboxylic acid]",melting point,,205 to 207 °C
